# Patent US20240197652A1, “KETAMINE IN THE TREATMENT OF […]” (Awakn LS Europe Holdings Limited, priority 2021, published 2024)
# Assays:
# Type in all cases: in vivo, human
# [1] = test system: subjects with binge eating disorder; assay: Adverse events, KSET, Example 8; conditions: three binge eating disorder subjects; 100 mg racemic ketamine sublingual
# subjects with CSBD [2] = assay: Sensitivity to reward (SPSRQ), Example 10; conditions: for Sensitivity to Reward at 2-week follow up: after 100 mg racemic ketamine sublingual; for Sensitivity to Reward, pre-administration: baseline before 100 mg racemic ketamine sublingual; for % change in Sensitivity to Reward: pre-administration to 2-week follow up, 100 mg racemic ketamine sublingual
# Description: Reward sensitivity was assessed using the SPSRQ. Behavioural tasks, EEG measurements, and subjective experience assessments were also completed.
# A study was completed on the use of ketamine to treat CSBD. Subjects were assessed for CSBD using the Problematic Pornography Use Scale (PPUS) and were included if they received an PPUS score greater than 3. Three subjects in total were included (CSB1-CSB3). All three were administered sublingual lozenges comprising 100 mg of racemic ketamine.
# The treatment protocol commenced in the same way as disclosed in the ketamine in subjects with gambling disorder study completed in EXAMPLE 7, with the exceptions outlined as follows: No behavioural tasks were completed. Self-report measures completed during EXAMPLE 10 included the Emotional Intimacy Measure, the Childhood Trauma Questionnaire, the Generalised Anxiety Disorder-7 (GAD-7), the Morningness-Eveningness Questionnaire (MEQ), and the Problematic Pornography Questionnaire (PPQ), the Acceptance and Action Questionnaire, and the Psychological and Interpersonal Relationship Scales (PAIRS).
# [3] = test system: subjects with binge eating disorder; assay: Binge Eating Scale (BES), Example 8; conditions: for Binge Eating Scale score at 2-week follow up / BES classification at two-week follow up: after 100 mg racemic ketamine sublingual; for BES classification, pre-administration / Binge Eating Scale score, pre-administration: baseline before 100 mg racemic ketamine sublingual; for % change in Binge Eating Scale: pre-administration to 2-week follow up, 100 mg racemic ketamine sublingual
# Text: Binge eating disorder may be characterised as being mild, moderate, and severe. The severity of binge eating disorder may be determined by the Binge Eating Scale (BES), wherein a score below 17 indicates no binge eating disorder, a score of between 18-20 indicates mild binge eating disorder, a score of between 21-27 indicates moderate binge eating disorder, and a score above 27 indicates severe binge eating disorder (Grupski et al., 2013), or based on ordinary skill. In embodiments, a patient may have binge eating disorder characterised as being mild. In other embodiments, a patient may have binge eating disorder characterised as being moderate. In other embodiments, a patient may have binge eating disorder characterised as being severe.
# A study was completed on the use of ketamine to treat binge eating disorder. Subjects were assessed for binge eating disorder using the Binge Eating Scale (BES), and included if they received a BES score greater than 15. Three subjects in total were included (BE1-BE3, and interchangeably on FIGS. 5 and 6 as BED1-BED3, these being the same subjects). All three were administered sublingual lozenges comprising 100 mg of racemic ketamine.
# (§1) The treatment protocol commenced in substantially the same way as disclosed in the ketamine in subjects with gambling disorder study completed in EXAMPLE 7, with the exceptions outlined as follows: No behavioural tasks were completed. Blood samples collected every 10 minutes from the time of administration to 90 minutes post-administration were additionally analysed for leptin and ghrelin. Self-report measures included the Binge Eating Scale, the Adult Attachment Interview (AAI), a 20 question interview about the subject's recollections of their childhood (Sykes and Turner, 2015); the Childhood Trauma Questionnaire; the Morningness-Eveningness Questionnaire (MEQ), a 19-item questionnaire designed to assess when a respondent prefers to wake up or start sleep (American Thoracic Society, 2022); the DSM-5 Binge Eating Disorder diagnostic criteria; and the SPSRQ.
# subjects with CSBD [4] = assay: Adverse events, KSET, Example 10; conditions: three CSBD subjects; 100 mg racemic ketamine sublingual
# total plasma ghrelin = assay: Total plasma ghrelin, Example 8; conditions: for total plasma ghrelin at 90 minutes post-lozenge / % change in total ghrelin: 100 mg racemic ketamine sublingual; for total plasma ghrelin, pre-administration: baseline before 100 mg racemic ketamine sublingual; for % change in total ghrelin: pre-administration to 90 minutes post-lozenge
# Description: Blood samples were collected from all three subjects. Blood samples were analysed to determine ketamine and ketamine metabolite levels, as well as the hormones leptin and ghrelin. Self-report measures were conducted.
# as §1
# Changes in ghrelin and leptin were measured. Ghrelin stimulates appetite and food intake, increases fat deposition, and releases growth hormone. Obese binge eating disorder subjects often have reduced plasma ghrelin, possibly due to the downregulation of ghrelin from excess eating or body fat (Atalayer et al. 2013). Leptin forms a negative feedback loop between fat cells and the hypothalamus, wherein leptin secretion signals the hypothalamus to inhibit food intake and increase energy expenditure. Increased leptin may aid in reducing appetite cravings associated with binge eating disorder (Obradovic et al. 2021).
# [5] = test system: subjects with gambling disorder; assay: Cue reactivity task: picture pleasure rating and gambling desire rating, Example 7
# [6] = baseline before 100 mg racemic ketamine sublingual
# [7] = one-week follow up after 100 mg racemic ketamine sublingual
# [8] = two-week follow up after 100 mg racemic ketamine sublingual
compound,measurement,setting,value
"CNC1(c2ccccc2Cl)CCCCC1=O (racemic) [ketamine, 2-(2-chlorophenyl)-2-(methylamino)-cyclohexanone]",course of adverse events,[1],"All adverse events were transient, and resolved two hours post-lozenge"
same,overall tolerability,[1],"well-tolerated, with no drop-outs"
same,unexpected adverse reactions (KSET),[1],no unexpected adverse reactions were observed
same,Sensitivity to Reward at 2-week follow up,subjects with CSBD [2]; subject CSB1,9
same,"Sensitivity to Reward, pre-administration",subjects with CSBD [2]; subject CSB1,10
same,% change in Sensitivity to Reward,subjects with CSBD [2]; subject CSB1,−10%
same,Sensitivity to Reward at 2-week follow up,subjects with CSBD [2]; subject CSB2,15
same,"Sensitivity to Reward, pre-administration",subjects with CSBD [2]; subject CSB2,15
same,Sensitivity to Reward at 2-week follow up,subjects with CSBD [2]; subject CSB3,9
same,"Sensitivity to Reward, pre-administration",subjects with CSBD [2]; subject CSB3,17
same,% change in Sensitivity to Reward,subjects with CSBD [2]; subject CSB3,−47.06%
same,Binge Eating Scale score at 2-week follow up,[3]; subject BE1,24
same,"BES classification, pre-administration",[3]; subject BE1,moderate binge eating disorder (a score of between 21-27 indicates moderate binge eating disorder)
same,"Binge Eating Scale score, pre-administration",[3]; subject BE1,26
same,BES classification at two-week follow up,"[3]; subject BE1, moderate binge eating disorder pre-administration",remained so
same,% change in Binge Eating Scale,[3]; subject BE1,−7.69%
same,Binge Eating Scale score at 2-week follow up,[3]; subject BE2,35
same,"Binge Eating Scale score, pre-administration",[3]; subject BE2,32
same,% change in Binge Eating Scale,[3]; subject BE2,+9.38%
same,Binge Eating Scale score at 2-week follow up,[3]; subject BE3,28
same,"BES classification, pre-administration",[3]; subject BE3,severe binge eating disorder (a score above 27 indicates severe binge eating disorder)
same,"Binge Eating Scale score, pre-administration",[3]; subject BE3,42
same,% change in Binge Eating Scale,[3]; subject BE3,−33.33%
same,BES classification at two-week follow up,"[3]; subject BE3, severe binge eating disorder pre-administration",one point away from the moderate classification
same,course of adverse events,subjects with CSBD [4],"All adverse events were transient, and resolved two hours post-lozenge"
same,overall tolerability,subjects with CSBD [4],"well-tolerated, with no drop-outs"
same,unexpected adverse reactions (KSET),subjects with CSBD [4],No unexpected adverse reactions were observed
same,total plasma ghrelin at 90 minutes post-lozenge,total plasma ghrelin; subject BE1,310 pg/mL
same,"total plasma ghrelin, pre-administration",total plasma ghrelin; subject BE1,254 pg/mL
same,% change in total ghrelin,total plasma ghrelin; subject BE1,+22.05%
same,total plasma ghrelin at 90 minutes post-lozenge,total plasma ghrelin; subject BE2,231 pg/mL
same,"total plasma ghrelin, pre-administration",total plasma ghrelin; subject BE2,198 pg/mL
same,% change in total ghrelin,total plasma ghrelin; subject BE2,+16.67%
same,total plasma ghrelin at 90 minutes post-lozenge,total plasma ghrelin; subject BE3,274 pg/mL
same,"total plasma ghrelin, pre-administration",total plasma ghrelin; subject BE3,291 pg/mL
same,% change in total ghrelin,total plasma ghrelin; subject BE3,−5.84%
same,"gambling desire rating, mean",[5]; [6],2.25
same,"picture pleasure rating, mean",[5]; [6],3.25
same,"gambling desire rating, mean",[5]; [7],−0.25
same,"picture pleasure rating, mean",[5]; [7],1.33
same,"gambling desire rating, mean",[5]; [8],−0.25
same,"picture pleasure rating, mean",[5]; [8],−0.83
